Assay results from patent US7262170B2, “Pharmaceutical composition for reducing vaginal acidity and treatment of vaginitis, and the use thereof” (priority 1998, dated 2007).

Legend:
Candida albicans = experiment: Growth of Candida albicans in broths with or without Fluconazole, Gram-stained smears of cultured broths; format: cell-based; settings: 48 hours incubation, Fluconazole 0.005% in experiment tubes
Procedure: Broths: Four sterilized broths were prepared separately according to following formula: • A. Sucrose 0.25%, yeast extract powder 0.15%, glutamic acid 0.4%, aspartic acid 0.4%, isoleucine 0.4%, proline 0.4%, phenylalanine 0.4%, Fluconazole, 0.005%, distilled water, pH adjusted to 6.5 • B. Sucrose 0.25%, yeast extract powder 0.15%, glutamic acid 0.08%, aspartic acid 0.08%, isoleucine 0.08%, proline 0.08%, phenylalanine 0.08%, Fluconazole, 0.005%, distilled water, pH adjusted to 6.5 • C. Control-A broth: Sucrose 0.25%, yeast extract powder 0.15%, glutamic acid 0.4%, aspartic acid 0.4%, isoleucine 0.4%, proline 0.4%, phenylalanine 0.4%, distilled water, pH adjusted to 6.5 • D. Control-B broth: Sucrose 0.25%, yeast extract powder 0.15%, glutamic acid 0.08%, aspartic acid 0.08%, isoleucine 0.08%, proline 0.08%, phenylalanine 0.08%, distilled water, pH adjusted to 6.5 Lactobacillus suspensions: Two lactobacillus suspensions were prepared separately from each of the clinical isolated L. acidophilus and L. crispatus strains. Candida suspension: One Candida suspension was prepared from a clinically isolated Candida albicans strain. Grouping: two groups of tubes were divided and each group had four tubes, two experimental tubes and two control tubes. Group A contained 3 ml of A-broth and Group B contained 3 ml of B-broth. […]

fungal vaginitis = settings: anti-fungal drug alone; cited from earlier work

Compound | growth of Candida albicans / yeast-like organisms in cultured broths (Candida albicans) | curative rate (fungal vaginitis)
OC(Cn1cncn1)(Cn1cncn1)c1ccc(F)cc1F [Fluconazole] | inhibited | –
Mikostatin | – | 75-80%
